{"source": "paper PMC11971462", "about": "“Generation and validation of a novel multitarget small molecule in glioblastoma” (Cell Death & Disease, 2025)", "key": {"[1]": {"molecular_target": "T1, recombinant hMAO-B (Homo sapiens, UniProt P27338)", "T1 construct": "purchased Sigma-Aldrich", "T1 sequence (P27338 whole entry)": "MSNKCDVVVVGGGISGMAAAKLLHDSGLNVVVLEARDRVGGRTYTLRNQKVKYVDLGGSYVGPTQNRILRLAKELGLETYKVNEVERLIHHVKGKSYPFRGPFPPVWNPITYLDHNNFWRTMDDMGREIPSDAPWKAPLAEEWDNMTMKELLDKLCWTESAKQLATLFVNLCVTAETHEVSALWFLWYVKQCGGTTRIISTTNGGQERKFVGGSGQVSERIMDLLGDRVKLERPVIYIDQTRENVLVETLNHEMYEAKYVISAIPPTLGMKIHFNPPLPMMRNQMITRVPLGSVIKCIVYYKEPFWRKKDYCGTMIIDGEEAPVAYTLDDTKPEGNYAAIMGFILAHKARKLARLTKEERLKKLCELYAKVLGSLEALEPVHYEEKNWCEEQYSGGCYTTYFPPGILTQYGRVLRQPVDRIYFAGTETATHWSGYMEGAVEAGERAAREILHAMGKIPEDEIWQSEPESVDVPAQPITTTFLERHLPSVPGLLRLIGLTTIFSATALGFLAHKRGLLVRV", "assay": "biochemical", "protocol": "The inhibitory capacity of DDI199 on HDACs was studied as previously described. The capacity of DDI199 to inhibit MAOs was studied by mimicking the reaction occurring in cells. Briefly, inhibitor solution containing 10 µM of DDI199 or reference compound was incubated for 30 minutes at 37 °C together with the enzyme solution, containing either recombinant hMAO-A (Sigma-Aldrich) at 0.5 U/mL or hMAO-B (Sigma-Aldrich) at 1.5 U/mL. 200 U/mL horseradish peroxidase (Sigma-Aldrich), 20 mM Ampliflu Red (Sigma-Aldrich) and 100 mM tyramine hydrochloride (Sigma-Aldrich) were then added and absorbance at 570 nm was measured every 5 minutes for 30 minutes. Percentage of inhibition was estimated from these values."}, "[2]": {"system": "U87-MG tumors", "assay": "Immunohistochemistry of subcutaneous tumors", "format": "in vivo, athymic nude-Foxn1nu mice", "protocol": "Subcutaneous tumors were extracted, fixed with 4% formaldehyde for 48 h and embedded in paraffin. Tumor sections were obtained and stainings for acetyl H3 (9649, Cell Signaling), acetylated α-tubulin (ab179484, abcam), PCNA (Ab18197, abcam) and Cleaved Caspase 3 (AF835, R&D Systems) were performed. ZEISS Axioscan 7 slide scanner was used to capture images of the stainings and analyses were done using Qupath."}, "[3]": {"system": "GNS166 cells", "assay": "EdU cell proliferation assay", "format": "cell-based, human", "conditions": "GNS166, 5 µM", "protocol": "Click-iT™ EdU Cell Proliferation Kit for Imaging (Invitrogen) was used according to the manufacturer’s instructions. Briefly, GNS166 cells were seeded and maintained overnight before DDI199 treatment. After 48 h, fresh culture medium containing 10 μM of EdU was added for 24 h and then, cells were fixed with 4% paraformaldehyde. Axio Observer 7 epifluorescence microscope was used to take pictures, which were later quantified in Qupath."}, "[4]": {"system": "U87-MG cells", "assay": "Washout experiment after treatment", "format": "in vivo, athymic nude-Foxn1nu mice", "protocol": "For tumor growth experiments, 5 × 10^5 U87-MG cells were subcutaneously injected into two bottom flanks of athymic nude-Foxn1^nu mice, and once tumors reached a size of 25-50 mm^3, mice were sorted into groups taking into account gender and tumor size. Afterwards, mice were intratumorally treated with vehicle, SAHA 100 µM or DDI199 100 µM following a schedule of 5 days on and 2 days off. In combined treatment, mice were treated intraperitoneally with 0.5 mg/Kg of TMZ for 5 days and intratumorally following a schedule of 5 days on and 2 days off with vehicle, SAHA 100 µM or DDI199 100 µM. After 4 weeks of treatment, some mice were kept for washout experiment, while the rest were sacrificed and tumors were extracted for immunohistochemistry and to disaggregate for reinjection and oncosphere formation studies. For reinjection assays, 1.5 × 10^5 cells were subcutaneously injected and tumor size was periodically measured. Once tumors reached end-point criteria, they were extracted for immunohistochemical analysis. An external caliper was used for tumor size measurement and the tumor volume was estimated using the formula V = L · W^2 · 0.5 (where L is tumor length and W is the tumor width)."}, "[5]": {"assay": "In vivo toxicity assay (body weight, organ macroscopy)", "set-up": "species or system athymic nude-Foxn1nu mice", "conditions": "intraperitoneal 15 mg/mL, 5 times per week for 4 weeks", "protocol": "15 mg/mL of DDI199 or vehicle (DMSO) were intraperitoneally injected in athymic nude-Foxn1^nu mice following a schedule of 5 days on and 2 days off and changes in body weight were measured to assess the potential toxicity of the MSM. At the end-point macroscopic analysis of the different organs was done."}, "[6]": {"molecular_target": "T2, recombinant hAChE (Homo sapiens, UniProt P22303)", "T2 construct": "purchased Sigma-Aldrich", "T2 sequence (P22303 32-614)": "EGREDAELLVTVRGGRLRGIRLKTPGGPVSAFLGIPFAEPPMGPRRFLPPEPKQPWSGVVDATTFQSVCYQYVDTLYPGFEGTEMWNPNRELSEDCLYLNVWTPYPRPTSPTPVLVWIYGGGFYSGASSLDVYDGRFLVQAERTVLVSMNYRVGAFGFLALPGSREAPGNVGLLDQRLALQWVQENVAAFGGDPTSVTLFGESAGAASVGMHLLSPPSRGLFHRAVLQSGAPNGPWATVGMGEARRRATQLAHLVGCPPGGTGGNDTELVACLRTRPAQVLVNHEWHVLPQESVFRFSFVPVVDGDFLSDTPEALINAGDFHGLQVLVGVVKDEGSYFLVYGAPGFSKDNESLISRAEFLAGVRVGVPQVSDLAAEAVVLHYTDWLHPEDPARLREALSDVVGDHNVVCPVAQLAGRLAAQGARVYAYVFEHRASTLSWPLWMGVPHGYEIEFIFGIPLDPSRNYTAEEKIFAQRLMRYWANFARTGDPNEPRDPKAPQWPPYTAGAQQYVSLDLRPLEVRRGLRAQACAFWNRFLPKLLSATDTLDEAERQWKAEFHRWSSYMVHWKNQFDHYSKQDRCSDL", "assay": "AChE inhibition, Ellman's colorimetric method", "format": "biochemical", "conditions": "10 µM compound; read-out: AChE inhibition percentage", "protocol": "(§1) Similarly, Ellman’s colorimetric method was used to study the inhibitory capacity of the compound on ChEs. Enzyme solution containing either recombinant hAChE (Sigma-Aldrich) at 0.5 U/mL or hBChE (Sigma-Aldrich) at 0.25 U/mL was incubated with inhibitor solution containing 10 µM of DDI199 or reference compound and 0.3 mM of DTNB (Sigma-Aldrich) for 20 minutes at 37 °C. […] In addition, kinetic of enzyme inhibition was also studied by repeating the same protocol and using five different concentrations of the substrate and four different concentrations of the inhibitor. Results were represented in a Lineweaver-Burk plot using GraphPad Prism software, and the constant of inhibition (Ki) was estimated from the point at which the line cuts the x-axis at the secondary plot."}, "[7]": {"molecular_target": "T3, recombinant hBChE (Homo sapiens, UniProt P06276)", "T3 construct": "purchased Sigma-Aldrich", "T3 sequence (P06276 29-602)": "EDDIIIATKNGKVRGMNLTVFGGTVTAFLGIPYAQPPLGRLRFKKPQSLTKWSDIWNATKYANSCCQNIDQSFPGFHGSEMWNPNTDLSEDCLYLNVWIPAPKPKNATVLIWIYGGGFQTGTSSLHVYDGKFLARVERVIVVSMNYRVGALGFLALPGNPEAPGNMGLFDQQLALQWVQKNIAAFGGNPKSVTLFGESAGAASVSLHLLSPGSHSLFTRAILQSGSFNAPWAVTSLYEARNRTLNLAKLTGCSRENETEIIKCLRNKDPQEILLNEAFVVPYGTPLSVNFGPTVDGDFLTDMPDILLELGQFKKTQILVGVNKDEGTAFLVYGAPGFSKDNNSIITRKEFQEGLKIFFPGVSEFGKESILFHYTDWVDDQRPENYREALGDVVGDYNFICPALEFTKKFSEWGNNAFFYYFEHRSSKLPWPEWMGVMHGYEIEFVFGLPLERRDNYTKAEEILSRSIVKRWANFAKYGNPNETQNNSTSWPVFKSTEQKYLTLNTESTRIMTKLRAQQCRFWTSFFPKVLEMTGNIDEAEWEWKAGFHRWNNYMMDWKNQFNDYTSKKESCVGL", "assay": "BChE inhibition and kinetics, Ellman's colorimetric method", "format": "biochemical", "protocol": "as §1"}, "[8]": {"system": "pancreatic cell line RWP1", "assay": "MTT cell viability", "format": "cell-based", "conditions": "Homo sapiens, 72 h", "protocol": "(§2) MTT assay was used to study cell viability. For that, cells were seeded at a density of 1.5 × 10^3 cells/well in 96-well plates, incubated overnight and then treated with increasing concentrations of DDI199. After 72 h of treatment, MTT absorbance was measured at 570 nm. GraphPad Prism software was used to analyze results and calculate IC50 values."}, "[9]": {"system": "gastric cancer MKN45 cells", "assay": "MTT cell viability", "format": "cell-based", "conditions": "Homo sapiens, MKN-45, 72 h", "protocol": "as §2"}, "[10]": {"system": "GNS166 patient-derived glioma stem cells", "assay": "MTT cell viability", "format": "cell-based", "conditions": "Homo sapiens, 72 h", "protocol": "as §2"}, "[11]": {"system": "U87-MG glioma cells", "assay": "MTT cell viability", "format": "cell-based", "conditions": "Homo sapiens, U-87 MG, 72 h", "protocol": "as §2"}, "[12]": {"system": "U251-MG glioma cells", "assay": "MTT cell viability", "format": "cell-based", "conditions": "Homo sapiens, U-251, 72 h", "protocol": "as §2"}, "[13]": {"system": "lung cancer NCI-H1299 cells", "assay": "MTT cell viability", "format": "cell-based", "conditions": "Homo sapiens, 72 h", "protocol": "as §2"}, "[14]": {"system": "Normal Human Astrocytes (NHA)", "assay": "MTT cell viability", "format": "cell-based", "conditions": "Astrocyte, 72 h", "protocol": "as §2"}, "[15]": {"system": "GNS179 patient-derived glioma stem cells", "assay": "MTT cell viability", "format": "cell-based", "conditions": "Homo sapiens, 72 h", "protocol": "as §2"}, "[16]": {"system": "gastric, pancreatic and lung cancer cells", "assay": "MTT cell viability, summary for other tumor cells", "format": "cell-based", "conditions": "Homo sapiens, 72 h, summary statement", "protocol": "as §2"}}, "data": [{"smiles": "C#CCN(Cc1cc2cc(OCCCN3CCCCC3)ccc2n1S(=O)(=O)c1ccccc1)C(=O)CCCCCCC(=O)NO", "note": "[DDI199]", "values": [{"measurement": "inhibition at 10 µM", "setting": "[1]; 10 µM compound, read-out: MAO-B inhibition percentage", "result": 55, "unit": "%"}, {"measurement": "IC50", "setting": "[1]; read-out: MAO-B IC50", "result": 14.9, "unit": "µM"}, {"measurement": "acetyl H3 immunohistochemical staining", "setting": "[2]; tumors at day 34, 100 µM intratumoral", "result": 83, "unit": "%"}, {"measurement": "acetyl α-tubulin immunohistochemical staining", "setting": "[2]; tumors at day 34, control 0.25", "result": 0.32}, {"measurement": "Cleaved Caspase 3 positive cells", "setting": "[2]; tumors at day 34, control 0.7%", "result": 1.5, "unit": "%"}, {"measurement": "PCNA positive cells", "setting": "[2]; tumors at day 34, control 70%", "result": 64, "unit": "%"}, {"measurement": "EdU positive cells", "setting": "[3]", "result": "almost blocking completely"}, {"measurement": "Survival in washout experiment, combined with TMZ", "setting": "[4]; TMZ + DDI199 versus control, TMZ alone and TMZ plus SAHA", "result": "extended survival"}, {"measurement": "Time to end-point volume after washout", "setting": "[4]; after 4 weeks treatment, controls 10 days", "result": 20, "unit": "days"}, {"measurement": "Survival in washout experiment", "setting": "[4]; compared to controls and SAHA (p = 0.05)", "result": "significantly longer survival"}, {"measurement": "Body weight of animals compared to controls", "setting": "[5]", "result": "did not significantly affect the body weight"}, {"measurement": "Macroscopic analysis of organs at end-point", "setting": "[5]", "result": "did not observe any difference"}, {"measurement": "inhibition at 10 µM", "setting": "[6]", "result": 25, "unit": "%"}, {"measurement": "IC50", "setting": "[7]", "result": 2.54, "unit": "µM"}, {"measurement": "inhibition at 10 µM", "setting": "[7]; 10 µM compound, read-out: BChE inhibition percentage", "result": 75, "unit": "%"}, {"measurement": "BChE type of inhibition", "setting": "[7]; Lineweaver-Burk plot", "result": "mixed inhibition"}, {"measurement": "Ki", "setting": "[7]; from Lineweaver-Burk and secondary plots", "result": 0.87, "unit": "µM"}, {"measurement": "IC50", "setting": "[8]", "result": 0.88, "unit": "µM"}, {"measurement": "IC50", "setting": "[9]", "result": 2.61, "unit": "µM"}, {"measurement": "IC50", "setting": "[10]", "result": 13, "unit": "µM"}, {"measurement": "IC50", "setting": "[11]", "result": 3.23, "unit": "µM"}, {"measurement": "IC50", "setting": "[12]", "result": 5.45, "unit": "µM"}, {"measurement": "IC50", "setting": "[13]", "result": 3.33, "unit": "µM"}, {"measurement": "IC50", "setting": "[14]", "result": 7, "unit": "µM"}, {"measurement": "IC50", "setting": "[15]", "result": 5.28, "unit": "µM"}, {"measurement": "IC50", "setting": "[16]", "result": "< 3", "unit": "µM"}]}]}
